Data: US8124111B2, “Immunomodulation by altering sphingosine 1-phosphate lyase (SPL) activity” (Children's Hospital & Research Center at Oakland, priority 2005, dated 2012)

What was measured:
[1] = system: S1P; assay: S1P measurements in murine tissue after FTY720 treatment; type: in vivo
Protocol: (§1) Drug treatments and leukocyte/lymphocyte counts: Four-week old FVB or C3H mice were obtained from Charles River Laboratories (Wilmington, Mass.). Animals were maintained in a pathogen-free facility in microisolator cages. Mice were anaesthetized with isoflurane inhalation, and a single dose of FTY720 (at 1 or 3 mg/kg) or GT11 (at 1, 10 or 100 mg/kg) in sterile water was injected intraperitoneally at time zero. Blood counts were determined by Coulter counter (Coulter Instruments, Hialeah, Fla.) and by manual differential counting. Mice were euthanized by CO2 inhalation at various time points post-injection, followed by tissue harvest. All animal studies were performed in accordance with approved CHORI IACUC protocols.
S1P measurements: S1P was isolated by two-phase lipid extraction, derivatized with OPA and quantitated by HPLC essentially as described (Jiang et al, (2004) Proc Natl Acad Sci USA 101, 17825-17830; Fyrst et al., (2004) J Lipid Res 45, 54-62; Caligan et al., (2000) Anal. Biochem. 281, 36-44). All tissues were weighed prior to snap freezing in liquid nitrogen and were stored at −100° C. until processing. One nanomole of C17-S1P and PSo were added as internal standards before homogenization of tissues. Lipids were extracted with 1 ml mixture of chloroform and methanol (1:2 ratio). Samples were incubated at room temperature with sonication for 3 hours and then dried by speed vac. One ml of 0.1N NaOH in methanol was added for 1 hour at 37° C. to achieve hydrolysis. After addition of 4 ml chloroform and 4 ml 1M KCl, samples were mixed and phases separated by centrifugation. The organic phase was collected and dried for sphingosine determination. The aqueous phase was mixed with 300 μl concentrated HCl and 6 ml chloroform. The phases were separated by centrifugation, and the organic phase was collected and dried for S1P determination. All samples for S1P determination were re-dissolved in methanol. After derivation with OPA, samples were injected onto HPLC for quantification. The mobile phase was methanol:10 mM phosphate buffer (pH 7.2):1M tetrabutylammonium dihydrogen phosphate (TBAP) in water=83:16:1, v/v/v and the flow rate was 1 ml/min.
FTY720 administration minimally affects tissue SIP levels—SK is known to be responsible for S1P synthesis, whereas SPL and S1P phosphatases are responsible for S1P catabolism. Since FTY720 interacts with both SK and SPL and may potentially influence the efficiency of both S1P synthesis and degradation, the sum effect of FTY270 administration on tissue S1P levels was determined. FTY720 treatment was associated with a slight increase in thymic tissue S1P at 36 hours, followed by a return to baseline levels by 48 hours (Table 2). […] S1P levels increased somewhat more dramatically in splenic tissue after FTY720 treatment (Table 2). […] According to non-limiting theory, simultaneous inhibition of SPL may account for the stability of tissue S1P levels in response to drug treatment.

[2] = single dose administration; cited from earlier work
[3] = system: Lymphocytes; assay: Lymphocyte counts after FTY720 treatment; type: in vivo, mice
Protocol: as §1
Inhibition of SPL by FTY720 in vivo—The effect on SPL enzyme activity of FTY720 administration was tested. Four-week old female FVB mice were given 1 mg/kg FTY720 by intraperitoneal injection, and tissue SPL activity in thymus was assessed over time. […] SPL inhibition occurred concomitantly with lymphopenia, and was consistent with the timing of lymphopenia reported previously (Chiba et al., (1998) J Immunol 160, 5037-5044) (Table 1).

[4] = biological target: T1, SPL (Homo sapiens, UniProt O95470); assay: Inhibition of SPL activity in vitro (whole cell extracts of HEK293 cells with human SPL adenoviral construct); type: biochemical; design: expressed in transfected cells; host or cells: HEK293 infected with adenoviral vector
T1 sequence (O95470 1-568): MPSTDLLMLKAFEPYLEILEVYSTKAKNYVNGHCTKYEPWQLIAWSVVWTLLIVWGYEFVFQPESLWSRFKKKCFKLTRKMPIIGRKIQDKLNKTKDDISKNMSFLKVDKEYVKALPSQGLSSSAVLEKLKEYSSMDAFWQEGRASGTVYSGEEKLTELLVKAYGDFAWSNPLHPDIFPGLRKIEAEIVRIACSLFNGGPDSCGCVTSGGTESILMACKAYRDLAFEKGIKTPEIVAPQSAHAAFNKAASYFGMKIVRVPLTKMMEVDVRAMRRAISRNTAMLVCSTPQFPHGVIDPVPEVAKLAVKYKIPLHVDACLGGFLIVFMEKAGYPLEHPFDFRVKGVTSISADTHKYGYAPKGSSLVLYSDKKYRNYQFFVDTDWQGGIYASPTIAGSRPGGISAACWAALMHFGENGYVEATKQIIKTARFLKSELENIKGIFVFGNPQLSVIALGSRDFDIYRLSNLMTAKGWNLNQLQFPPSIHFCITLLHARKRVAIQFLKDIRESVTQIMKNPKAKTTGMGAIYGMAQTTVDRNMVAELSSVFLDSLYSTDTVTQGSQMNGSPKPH
Protocol: Various concentrations of FTY720 or its phosphorylated derivative (FTY720P) were incubated for 30 minutes on ice with whole cell extracts containing high SPL activity by virtue of a human SPL adenoviral expression construct. SPL activity was determined. (A) FTY720; (B) FTY720-P.
SPL enzyme assay: Tissues were homogenized by sonication in 9 volumes of ice-cold homogenization buffer (5 mM MOPS pH 7.5, 1 mM DTT, 1 mM EDTA, 0.25 M sucrose, and 5 micrograms/ml each chymostatin, leupeptin, pepstatin A and antipain). SPL assays were conducted using 50 micrograms protein per assay and radioactive [4,5 ^3H]DHS1P substrate, as described previously (Reiss et al., (2004) J Biol Chem 279, 1281-1290). For in vitro FTY720 and FTY720-P experiments, drug was incubated with whole cell extracts prepared from HEK293 cells infected with an adenoviral vector expressing human SPL. These extracts contained approximately 200 picomoles/mg protein/minute SPL activity. Drug was incubated with extracts for 30 minutes, followed by addition of extracts to reaction buffer and substrate to initiate the reaction.
Although treatment with FTY720 was associated with low (nanomolar) circulating drug levels, it was possible that local concentrations within cells and subcellular compartments may have been considerably higher, since FTY720 has been reported to be actively transported into cells by the actions of drug transporters that recognize long chain bases (Honig et al., (2003) J Clin Invest 111, 627-637).

[5] = 30 minutes incubation with extracts

dose dependence of SPL inhibition in vitro [4]: dose-dependent
concentration of maximal effect on SPL activity in vitro [4, 5]: 30 µM
lowest concentration with effect on SPL activity in vitro [4, 5]: 300 nM
Compound: CCCCCCCCc1ccc(CCC(N)(CO)CO)cc1 [FTY720]
S1P (spleen) ([1]; 24 hours after FTY720): 15121.31 picomoles per gram of wet weight tissue
S1P (spleen) ([1]; 36 hours after FTY720): 18482.30 picomoles per gram of wet weight tissue
S1P (spleen) ([1]; 48 hours after FTY720): 12365.84 picomoles per gram of wet weight tissue
Dihydrosphingosine-1-P (DHS1P) tissue levels ([1]; throughout 48 hours of treatment): remained stable
S1P (thymus) ([1]; 24 hours after FTY720): 3000.69 picomoles per gram of wet weight tissue
S1P (thymus) ([1]; 36 hours after FTY720): 3917.48 picomoles per gram of wet weight tissue
S1P (thymus) ([1]; 48 hours after FTY720): 3194.45 picomoles per gram of wet weight tissue
elimination half-life [2]: long
Lymphocytes ([3]; 24 hours after FTY720): 2.2 1000/μL
Lymphocytes ([3]; 48 hours after FTY720): 3.2 1000/μL
Lymphocytes ([3]; 72 hours after FTY720): 2.0 1000/μL
